The subject of one data set is MDR1. Briefly: Cell membrane permeability test on MDR1-MDCK II cells. It counts as in vitro ADME. The settings on record: dog; for Papp A→B at 150 min, 2 μM / Papp B→A at 150 min, 2 μM: pH=7.4; for efflux ratio at 150 min, 2 μM: pH 7.4, Papp B to A/Papp A to B. The procedure: Cell membrane permeability of a test compound was evaluated on MDR1-MDCK II cells.
A test compound (10 mM solution of the compound in DMSO) was diluted with a transfer buffer (HBSS with 10 mM Hepes, pH=7.4) to prepare a sample having a final concentration of 2 μM, followed by bidirectional (A-B and B-A) administration. After administration, the cell plate was incubated in an incubator with 5% CO2 and a saturated humidity at 37° C. for 150 minutes. After the 150-minute incubation, the sample was collected, and the concentration of the test compound in the transfer sample was semi-quantitatively determined by LC/MS/MS method.

Data set [1] is described as follows: Liver microsome stability test, rat. Type of data set: in vitro ADME. As to conditions: rat liver microsomes; SD rat (R) liver microsome; read-out: Liver microsome stability (T1/2, min). The procedure:
(§1) A test compound was incubated with CD-1 mouse liver microsome, SD rat liver microsome, and human liver microsome, respectively, to evaluate the stability of the test compound.
(§2) Preparation of a solution sample of the test compound: 10 mM solution (5 μL) of a compound prepared in the Example in DMSO was added to a mixed solvent (450 μL) of DMSO (45 μL), methanol and water (a volume ratio of methanol to water was 1:1) to prepare a 100 μM solution of the test compound; and 50 μL of the 100 μM solution of the test compound was added to 450 μL of 100 mM potassium phosphate buffer to obtain a 10 μM solution of the test compound.
(§3) The 10 μM solution of the test compound was pre-incubated with the microsome from the above three species for 10 minutes, respectively, and then a working solution of a reduced nicotinamide adenine dinucleotide phosphate (NADPH) regeneration system was added to the incubation plate at each time point to initiate the reaction, and finally a stop solution (100% ACN) was added to the reaction plate to terminate the reaction at 0, 5, 10, 20, 30 and 60-minute. The test compound was determined by LC-MS/MS method.
(In general: Microsomes from liver hold many membrane-bound enzymes, among them those of drug oxidation.)

Data set [2] can be described thus: Liver microsome stability test, human. Type of data set: in vitro ADME. The settings on record: human liver microsomes; human (H) liver microsome; read-out: Liver microsome stability (T1/2, min). The method, then: as §1, §2, §3
For the next data set, the system named is MM1.S cells. Briefly: In vitro anti-proliferation test on MM1.S cells (CellTiter-Glo). As to conditions: Homo sapiens, 48 h, 2 days incubation, cell viability. Type of data set: cell-based. The method, then: This test was aimed to investigate the inhibitory effect of a compound on cell proliferation by determining the effect of the compound on cell viability in tumor cell line MM1.S in vitro.
MM1.S cells were seeded into a black 96-well cell culture plate at a density of 7,000 cells per well, and then the plate was incubated overnight in an incubator with 5% CO2 and 100% relative humidity at 37° C. A solution of a test compound in DMSO was added to the cell culture wells at a certain concentration (0.3 to 2000 nM), and then the culture plate was placed back to the incubator, and a vehicle control (containing DMSO with no compound) and a blank control were provided.
The culture plate was incubated in the incubator with 5% CO2 and 100% relative humidity at 37° C. for 2 days. The sample was treated using the Promega CellTiter-Glo Luminescent Cell Viability Assay Kit (Promega-G7571) standard method, and a luminescent signal was detected on the SpectraMax i3x of Molecular Devices plate reader. The inhibition rate of the test compound was calculated through the following equation using original data: […]
RLU represents a relative luminescence intensity.

Data set [3] can be described thus: Liver microsome stability test, mouse. The settings on record: mouse liver microsomes; CD-1 mouse (M) liver microsome; read-out: Liver microsome stability (T1/2, min). It counts as in vitro ADME. The method, then: as §1, §2, §3

In the case of `CC(C)CC(NC(=O)[C@H](Cc1ccccc1)NC(=O)[C@@H]1CCN1c1ccc(F)cc1)B(O)O` (single isomer, unassigned) [WX-193], the Papp A→B at 150 min, 2 μM in the data set with MDR1 came to 0.1 ×10⁻⁶ cm/s. Further, in the data set on MDR1, the Papp B→A at 150 min, 2 μM is 13.1 ×10⁻⁶ cm/s. The efflux ratio at 150 min, 2 μM in the data set with MDR1 was 131. The half-life in data set [1] worked out at 4.6 min; in data set [2], 4.8 min; in data set [3], 2.7 min. The compound further had an IC50 in the data set with MM1.S cells of 8.2 nM.

Take `CC(C)CC(NC(=O)CNC(=O)[C@@H]1CCN1c1ccc(F)cc1)B(O)O` (single isomer, unassigned) [WX-301]: the values for the half-life in data set [1], in data set [2] and in data set [3] were 42.1 min, 74.3 min and 43.5 min, respectively. Further, the midpoint of inhibition in the data set on MM1.S cells, the IC50, lay at 5.8 nM.

Consider `CC(C)CC(NC(=O)[C@H](C)NC(=O)[C@@H]1CCN1c1ncc(F)cn1)B(O)O` (single isomer, unassigned) [WX-313], for which, in the data set on MDR1, the Papp A→B at 150 min, 2 μM was 0.2 ×10⁻⁶ cm/s. The Papp B→A at 150 min, 2 μM with MDR1 was determined as 1.29 ×10⁻⁶ cm/s. Further, the efflux ratio at 150 min, 2 μM in the data set on MDR1 came to 7.16. Also, the half-life in data set [1] was 57.2 min; in data set [2], above 145 min; in data set [3] it was 52.5 min. The same compound gave an IC50 with MM1.S cells of 24.5 nM.

Regarding `CC(C)CC(NC(=O)CNC(=O)[C@@H]1CCN1c1ccc(F)cn1)B(O)O` (single isomer, unassigned) [WX-317], in the data set on MDR1, the Papp A→B at 150 min, 2 μM turned out to be 0.01 ×10⁻⁶ cm/s; the Papp B→A at 150 min, 2 μM was found to be 0.05 ×10⁻⁶ cm/s; the efflux ratio at 150 min, 2 μM was 5. In addition, in data set [1], the half-life was 35.5 min. In addition, the half-life in data set [2] was 77 min. The same compound came in with an IC50 in the data set on MM1.S cells of 32 nM. Also, the half-life in data set [3] was 27.1 min.

Turning to `CC(C)CC(NC(=O)CNC(=O)[C@@H]1CCN1c1ccc(F)cc1F)B(O)O` (single isomer, unassigned) [WX-333], in the data set on MDR1, the Papp A→B at 150 min, 2 μM worked out at 0.38 ×10⁻⁶ cm/s; the Papp B→A at 150 min, 2 μM came to 7.32 ×10⁻⁶ cm/s; the efflux ratio at 150 min, 2 μM turned out to be 19.3. Further, in data set [1], the half-life was found to be 43.1 min. Also, the half-life in data set [2] is 67.4 min. This compound gave an IC50 with MM1.S cells of 1 nM. Also, the half-life in data set [3] is 67.4 min.

For `CC(C)CC(NC(=O)[C@H](Cc1ccccc1)NC(=O)[C@@H]1CCN1c1nccc(-c2ccccc2)n1)B(O)O` (some centres unmarked) [WX-174], in the data set on MDR1, the Papp A→B at 150 min, 2 μM came out at 0.44 ×10⁻⁶ cm/s; the Papp B→A at 150 min, 2 μM was 18.4 ×10⁻⁶ cm/s; the efflux ratio at 150 min, 2 μM is 41.8. For the same compound, the half-life in data set [1] came out at 1.6 min. For the same compound, the half-life in data set [2] was 3.5 min. Moreover, in the data set on MM1.S cells, the IC50 turned out to be 5.8 nM. Moreover, the half-life in data set [3] is 0.8 min.

As for `CC(C)CC(NC(=O)[C@H](CC1CC1)NC(=O)[C@@H]1CCN1c1ncc(F)cn1)B(O)O` (some centres unmarked) [WX-260], in the data set with MDR1, the Papp A→B at 150 min, 2 μM was 0.3 ×10⁻⁶ cm/s; the Papp B→A at 150 min, 2 μM amounted to 5.1 ×10⁻⁶ cm/s; the efflux ratio at 150 min, 2 μM turned out to be 17. Moreover, the half-life in data set [1] is above 145 min. The half-life in data set [2] amounted to 108 min. Moreover, the IC50 with MM1.S cells was 11 nM. For the same compound, the half-life in data set [3] amounted to 84.8 min.

For `CC(C)CC(NC(=O)[C@H](CC1CC1)NC(=O)[C@@H]1CCN1c1ccc(C(F)(F)F)cn1)B(O)O` (some centres unmarked) [WX-306], in the data set with MDR1, the Papp A→B at 150 min, 2 μM amounted to 0.3 ×10⁻⁶ cm/s; the Papp B→A at 150 min, 2 μM worked out at 17.8 ×10⁻⁶ cm/s; the efflux ratio at 150 min, 2 μM amounted to 59.3. Besides, the half-life in data set [1] was 37.4 min. In addition, the half-life in data set [2] came out at 17.8 min. In the data set on MM1.S cells, this compound had an IC50 of 8.2 nM. The half-life in data set [3] was 14 min.

In the case of `CC(C)CC(NC(=O)[C@H](CC1CC1)NC(=O)[C@@H]1CCN1c1nc(C(F)(F)F)cs1)B(O)O` (some centres unmarked) [WX-308], in the data set on MDR1, the Papp A→B at 150 min, 2 μM was 0.2 ×10⁻⁶ cm/s; the Papp B→A at 150 min, 2 μM is 15.3 ×10⁻⁶ cm/s; the efflux ratio at 150 min, 2 μM was determined as 76.5. In addition, in data set [1], the half-life came to 26.8 min. Also, the half-life in data set [2] is 27.4 min. In the data set with MM1.S cells, this compound displayed an IC50 of 8.9 nM. In addition, in data set [3], the half-life came to 20.1 min.

For the compound `CC(C)CC(NC(=O)CNC(=O)[C@@H]1CCN1c1nc(C(F)(F)F)cs1)B(O)O` (some centres unmarked) [WX-327], in the data set on MDR1, the Papp A→B at 150 min, 2 μM stood at 0.24 ×10⁻⁶ cm/s; the Papp B→A at 150 min, 2 μM amounted to 2.24 ×10⁻⁶ cm/s; the efflux ratio at 150 min, 2 μM amounted to 9.33. In addition, the half-life in data set [1] was 26.5 min. Also, the half-life in data set [2] was determined as 75 min. This compound came in with an IC50 in the data set with MM1.S cells of 24.2 nM. The half-life in data set [3] came to 37.7 min.

For `CC(C)CC(NC(=O)CNC(=O)[C@@H]1CCN1c1ccc(C(F)(F)F)cn1)B(O)O` (some centres unmarked) [WX-329], in the data set with MDR1, the Papp A→B at 150 min, 2 μM amounted to 0.27 ×10⁻⁶ cm/s; the Papp B→A at 150 min, 2 μM came out at 3.74 ×10⁻⁶ cm/s; the efflux ratio at 150 min, 2 μM turned out to be 13.8. Further, the half-life in data set [1] came out at 43.3 min. Further, the half-life in data set [2] was 51.5 min. Moreover, the IC50 in the data set on MM1.S cells is 11.5 nM. Besides, in data set [3], the half-life was determined as 40.3 min.

Regarding `CC(C)CC(NC(=O)CNC(=O)[C@@H]1CCN1c1ccc(C(F)(F)F)cc1Cl)B(O)O` (some centres unmarked) [WX-351], inhibition with MM1.S cells was half-maximal at 45.9 nM (IC50).

For `CC(C)CC(NC(=O)CNC(=O)[C@@H]1CCN1c1ccc(C(F)(F)F)cc1F)B(O)O` (some centres unmarked) [WX-355], the IC50 in the data set on MM1.S cells is 28.8 nM.

On to `CC(C)CC(NC(=O)CNC(=O)[C@@H]1CCN1c1ccc(C#N)cc1F)B(O)O` (some centres unmarked) [WX-365], for which the IC50 in the data set with MM1.S cells worked out at 90.6 nM. This IC50 lies about 3.1-fold higher than the previous one.

With `CC(C)CC(NC(=O)CNC(=O)[C@@H]1CCN1c1ccc(C(F)(F)F)nn1)B(O)O` (some centres unmarked) [WX-367], in the data set on MM1.S cells, the IC50 was 183 nM.

Compound `CC(C)CC(NC(=O)CNC(=O)[C@@H]1CCN1c1c(F)cc(Cl)cc1F)B(O)O` (some centres unmarked) [WX-373] showed an IC50 with MM1.S cells of 26.7 nM.

As to `CC(C)CC(NC(=O)CNC(=O)[C@@H]1CCN1c1ncc(F)cc1F)B(O)O` (some centres unmarked) [WX-379], the midpoint of inhibition in the data set with MM1.S cells, the IC50, lay at 24 nM.

`CC(C)CC(NC(=O)CNC(=O)[C@@H]1CCN1c1ccc(F)cc1Cl)B(O)O` (some centres unmarked) [WX-381] returned an IC50 in the data set with MM1.S cells of 119 nM.

For the compound `CC(C)CC(NC(=O)CNC(=O)[C@@H]1CCN1c1ccc(Cl)cc1C(F)(F)F)B(O)O` (some centres unmarked) [WX-385], in the data set on MM1.S cells, the IC50 amounted to 104 nM.

Consider `CC(C)CC(NC(=O)CNC(=O)[C@@H]1CCN1c1cc(F)c(F)cc1F)B(O)O` (some centres unmarked) [WX-391], for which it took 5.4 nM to reach half-maximal inhibition with MM1.S cells (IC50).

As a reminder, the Papp A→B is the apparent permeability from the apical to the basolateral side of a cell layer. Read a low Papp A→B as poor permeation. The Papp B→A is how fast a substance crosses the layer from the basolateral side. In general, efflux ratio refers to a quotient of directional permeabilities that is used to spot active efflux. One may read the IC50 as the midpoint of a concentration-inhibition curve. Low values mean higher potency, high ones lower potency.
